Reference: article PMC7918733, “Biological Profiling of Semisynthetic C19-Functionalized Ferruginol and Sugiol Analogues” (Antibiotics, 2021)
Read-outs that look alike come from different tables or passages of the source.

What was measured:
[1] = system: A549 (Lung); experiment: Antiproliferative SRB assay; format: cell-based, human; settings: Homo sapiens, A549, mean ± SD of at least two experiments
Experimental: (§1) Cells, cultures and the activity test of abietane analogs followed reported methods. The SRB assay was performed as previously described, and the antiproliferative activity was given as GI50 values, which were calculated according to NCI formulas.

[2] = system: SW1573 (Lung); experiment: Antiproliferative SRB assay; format: cell-based, human; settings: Homo sapiens, SW1573, mean ± SD of at least two experiments
Experimental: as §1

[3] = system: WiDr (Colon); experiment: Antiproliferative SRB assay; format: cell-based, human; settings: Homo sapiens, WiDr, mean ± SD of at least two experiments
Experimental: as §1

[4] = system: HBL-100 (Breast); experiment: Antiproliferative SRB assay; format: cell-based; settings: Homo sapiens, mean ± SD of at least two experiments
Experimental: as §1

[5] = system: HeLa (Cervix); experiment: Antiproliferative SRB assay; format: cell-based; settings: Homo sapiens, mean ± SD of at least two experiments
Experimental: as §1

[6] = system: T-47D (Breast); experiment: Antiproliferative SRB assay; format: cell-based; settings: Homo sapiens, T47D, mean ± SD of at least two experiments
Experimental: as §1

[7] = system: L. infantum promastigotes; design: method as in PMID 30840453; settings: C18-congeners, read-out: L. infantum IC50 ± SD; cited from earlier work
[8] = system: L. donovani promastigotes; settings: C18-congeners, read-out: L. donovani IC50 ± SD; cited from earlier work
[9] = system: L. amazonensis promastigotes; design: method as in PMID 30840453; settings: C18-congeners, read-out: L. amazonensis IC50 ± SD; cited from earlier work
[10] = system: L. guyanensis promastigotes; design: method as in PMID 30840453; settings: C18-congeners, read-out: L. guyanensis IC50 ± SD; cited from earlier work
[11] = system: A549 (Lung); settings: cited from earlier work
[12] = system: HBL-100 (Breast); settings: C18-congeners; cited from earlier work
[13] = system: HeLa (Cervix); settings: C18-congeners; cited from earlier work
[14] = system: SW1573 (Lung); settings: C18-congeners; cited from earlier work
[15] = system: T-47D (Breast); settings: C18-congeners; cited from earlier work
[16] = system: WiDr (Colon); settings: C18-congeners; cited from earlier work
[17] = system: Macrophages J774; settings: read-out: Macrophages J774 CC50; C18-congeners; cited from earlier work
[18] = biological target: T1, GABAA receptor subtype (α1β2γ2S) (Homo sapiens, UniProt P14867+P18507+P47870); design: expressed in transfected cells; host or cells: Xenopus laevis oocytes; settings: C18-congeners, cited from earlier work
T1 sequence (P14867 28-456): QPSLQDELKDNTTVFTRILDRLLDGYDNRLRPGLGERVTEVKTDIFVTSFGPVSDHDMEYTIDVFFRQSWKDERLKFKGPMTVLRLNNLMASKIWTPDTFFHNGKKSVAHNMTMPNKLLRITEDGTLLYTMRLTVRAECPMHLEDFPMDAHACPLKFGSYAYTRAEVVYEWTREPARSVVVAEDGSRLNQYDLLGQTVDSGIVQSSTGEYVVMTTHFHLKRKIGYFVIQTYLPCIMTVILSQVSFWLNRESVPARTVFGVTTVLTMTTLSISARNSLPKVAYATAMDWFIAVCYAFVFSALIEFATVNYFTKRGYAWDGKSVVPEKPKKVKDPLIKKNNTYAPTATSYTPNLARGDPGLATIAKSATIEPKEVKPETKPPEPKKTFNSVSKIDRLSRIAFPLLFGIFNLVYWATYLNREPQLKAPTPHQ
T1 sequence (P47870 26-512): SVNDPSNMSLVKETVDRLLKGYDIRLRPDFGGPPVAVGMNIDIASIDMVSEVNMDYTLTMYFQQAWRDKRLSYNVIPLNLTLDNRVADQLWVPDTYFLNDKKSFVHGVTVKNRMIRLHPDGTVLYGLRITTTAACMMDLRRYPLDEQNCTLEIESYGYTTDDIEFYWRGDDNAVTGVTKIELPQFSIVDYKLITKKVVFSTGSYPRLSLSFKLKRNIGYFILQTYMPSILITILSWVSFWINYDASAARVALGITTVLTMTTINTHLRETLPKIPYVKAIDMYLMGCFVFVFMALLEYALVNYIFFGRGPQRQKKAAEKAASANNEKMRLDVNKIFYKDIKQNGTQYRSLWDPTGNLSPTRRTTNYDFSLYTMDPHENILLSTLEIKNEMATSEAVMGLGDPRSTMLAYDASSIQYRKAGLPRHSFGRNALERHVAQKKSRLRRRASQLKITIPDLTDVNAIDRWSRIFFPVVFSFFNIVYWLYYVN
T1 sequence (P18507 40-467 isoform P18507-1 limits assumed): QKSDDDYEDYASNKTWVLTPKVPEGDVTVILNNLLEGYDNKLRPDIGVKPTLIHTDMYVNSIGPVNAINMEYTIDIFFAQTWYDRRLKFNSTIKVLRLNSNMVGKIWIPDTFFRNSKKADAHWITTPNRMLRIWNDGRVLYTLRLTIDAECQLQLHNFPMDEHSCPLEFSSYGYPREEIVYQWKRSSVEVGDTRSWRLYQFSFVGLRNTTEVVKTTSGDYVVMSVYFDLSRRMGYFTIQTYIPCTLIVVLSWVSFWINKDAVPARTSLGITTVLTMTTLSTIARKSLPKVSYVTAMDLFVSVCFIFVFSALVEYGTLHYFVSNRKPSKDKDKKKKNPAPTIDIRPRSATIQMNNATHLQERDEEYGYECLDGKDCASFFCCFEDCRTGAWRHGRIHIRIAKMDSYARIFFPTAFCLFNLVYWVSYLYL

[19] = system: BJ; experiment: Cytotoxicity on mammalian cell lines; format: cell-based; settings: Homo sapiens, read-out: BJ EC50
Experimental: (§2) Assays were performed by using previously described DNA stain-based assay and methods, including cytotoxicity assays.

[20] = system: HEK293; experiment: Cytotoxicity on mammalian cell lines; format: cell-based
Experimental: as §2

[21] = system: HepG2; experiment: Cytotoxicity on mammalian cell lines; format: cell-based
Experimental: as §2

[22] = system: RAJI; experiment: Cytotoxicity on mammalian cell lines; format: cell-based; settings: Homo sapiens, read-out: RAJI EC50
Experimental: as §2

[23] = system: P. falciparum 3D7 strain; experiment: Antiplasmodial DNA stain-based growth assay; format: cell-based; settings: Plasmodium falciparum, read-out: P. falciparum 3D7 EC50
Experimental: as §2

[24] = system: P. falciparum K1 strain; experiment: Antiplasmodial DNA stain-based growth assay; format: cell-based; settings: Plasmodium falciparum, read-out: P. falciparum K1 EC50
Experimental: as §2

[25] = in vitro; settings: mouse, Macrophages J774 CC50
Experimental: (§3) The compounds were additionally studied in a panel of mammalian cell lines to determine cytotoxicity.
(§4) The parasites, culture procedure and the activity of functionalized abietane analogs on Leishmania promastigotes were performed according to the method previously reported by us [28], while the intracellular amastigote assay was performed on L. amazonensis and L. infantum according to the fluorometric test [29]. The J774 cell culture and the cytotoxicity assay was carried out according to our previously described method [30].

[26] = biological target: T1, GABAA receptor subtype (α1β2γ2S); experiment: Two-microelectrode voltage-clamp in Xenopus laevis oocytes
Experimental: All molecules were tested at concentrations of 10, 100 μM and compared with dehydroabietic acid (DHA) (3) as a reference [16].

[27] = system: L. infantum amastigotes; experiment: Intracellular amastigote assay (fluorometric test); format: cell-based; settings: Leishmania infantum, read-out: L. infantum IC50 ± SD
[28] = system: L. amazonensis amastigotes; experiment: Intracellular amastigote assay (fluorometric test); format: cell-based; settings: Leishmania amazonensis, read-out: L. amazonensis IC50 ± SD
[29] = system: L. infantum promastigotes; experiment: Antileishmanial in vitro promastigote assay; settings: Leishmania infantum, read-out: L. infantum IC50 ± SD
Experimental: as §3, §4

[30] = system: L. donovani promastigotes; experiment: Antileishmanial in vitro promastigote assay; settings: Leishmania donovani, read-out: L. donovani IC50 ± SD
Experimental: as §3, §4

[31] = system: L. amazonensis promastigotes; experiment: Antileishmanial in vitro promastigote assay; settings: Leishmania amazonensis, read-out: L. amazonensis IC50 ± SD
Experimental: as §3, §4

[32] = system: L. guyanensis promastigotes; experiment: Antileishmanial in vitro promastigote assay; settings: Leishmania guyanensis, read-out: L. guyanensis IC50 ± SD
Experimental: as §3, §4

[33] = Homo sapiens, HEK293; read-out: HEK293 EC50
[34] = Homo sapiens, HepG2; read-out: HepG2 EC50

COc1cc([C@@H]2c3cc4c(cc3[C@@H](O[C@@H]3O[C@@H]5CO[C@@H](C)O[C@H]5[C@H](O)[C@H]3O)[C@H]3COC(=O)[C@H]23)OCO4)cc(OC)c1O [etoposide, reference compound]
GI50 [1]: 1.5 ± 0.3 µM | GI50 [2]: 15 ± 1.5 µM | GI50 [3]: 23 ± 3.1 µM | GI50 [4]: 1.4 ± 0.1 µM | GI50 [5]: 3.3 ± 1.6 µM | GI50 [6]: 22 ± 5.5 µM

COC(=O)[C@]1(C)CCC[C@]2(C)c3cc(O)c(C(C)C)cc3CC[C@@H]12 [Compound 12b]
IC50 [7]: 5 ± 0.3 µM | IC50 [8]: 9.21 ± 0.06 µM | IC50 [9]: 3.9 ± 0.1 µM | IC50 [10]: 5.9 ± 1.1 µM | GI50 ([11]; C18-congeners): 9.4 ± 2.6 µM | GI50 [12]: 9.7 ± 2.7 µM | GI50 [13]: 5.8 ± 0.5 µM | GI50 [14]: 11 ± 2 µM | GI50 [15]: 19 ± 3.8 µM | GI50 [16]: 23 ± 4.4 µM | CC50 [17]: 34.2 ± 3.1 µM | IGABA Potentiation of 10 µM (%) [18]: 23.7 ± 9.6% | IGABA Potentiation of 100 µM (%) [18]: 378.0 ± 65.6%

COC(=O)[C@]1(C)CCC[C@]2(C)c3cc(OC(C)=O)c(C(C)C)cc3CC[C@@H]12 [Compound 10b]
IC50 [7]: 1.3 ± 0.1 µM | IC50 [8]: 8.1 ± 0.7 µM | IC50 [9]: 3.2 ± 0.3 µM | IC50 [10]: 5.5 ± 0.7 µM | GI50 ([11]; C18-congeners): 11 ± 1.8 µM | GI50 [12]: 15 ± 3.9 µM | GI50 [13]: 4.4 ± 1.1 µM | GI50 [14]: 12 ± 3.2 µM | GI50 [15]: 14 ± 2.9 µM | GI50 [16]: 16 ± 2.5 µM | CC50 [17]: 26.5 ± 2.7 µM | IGABA Potentiation of 10 µM (%) [18]: 5.1 ± 2.1% | IGABA Potentiation of 100 µM (%) [18]: 26.3 ± 8.9%

CC(C)c1cc2c(cc1O)[C@@]1(C)CCCC(C)(C)[C@@H]1CC2=O [Compound 2, sugiol]
GI50 [11]: 79.8 ± 2.2 µM

CC(C)=CCC[C@]1(C)C=Cc2c(O)c3c(c(CC=C(C)C)c2O1)O[C@]12C(=C[C@@H]4C[C@H]1C(C)(C)O[C@@]2(C/C=C(/C)C(=O)O)C4=O)C3=O [Gambogic acid, reference compound]
EC50 [19]: 0.21 µM | EC50 [20, 33]: 0.21 µM | EC50 [21, 34]: > 25 µM | EC50 [22]: 0.24 µM

CC(C)c1cc2c(cc1O)[C@@]1(C)CCC[C@](C)(CO)[C@@H]1CC2=O [Compound 15, 19-hydroxysugiol]
EC50 ([23]; 3D7, chloroquine-sensitive strain, 72 h incubation): > 15 µM | EC50 ([24]; K1, chloroquine-resistant strain, 72 h incubation): 9.4 µM | EC50 [19]: > 25 µM | EC50 [20, 33]: > 25 µM | EC50 [21, 34]: > 25 µM | EC50 [22]: > 25 µM | GI50 [1]: 10 ± 0.3 µM | GI50 [2]: 19 ± 3.3 µM | GI50 [3]: 17 ± 5 µM | GI50 [4]: 17 ± 1.7 µM | GI50 [5]: 15 ± 1.1 µM | GI50 [6]: 19 ± 1.1 µM | CC50 [25]: 50.1 ± 2.4 µM | IGABA Potentiation of 100 µM (%) ([26]; 100 µM, α1β2γ2S receptors): 238 ± 28% | activation at 10 µM ([26]; read-out: IGABA Potentiation of 10 µM (%)): 30 ± 14% | activation at 100 µM ([26]; read-out: IGABA Potentiation of 100 µM (%)): 238%

CC(C)c1cc2c(cc1O)[C@@]1(C)CCC[C@@](C)(CO)[C@@H]1CC2=O [Compound 15b]
IC50 [7]: 9.7 ± 0.8 µM | IC50 [8]: 19.7 ± 0.4 µM | IC50 [9]: 10.2 ± 0.6 µM | IC50 [10]: 16.5 ± 0.7 µM | GI50 ([11]; C18-congeners): 19 ± 3.3 µM | GI50 [12]: 16 ± 2 µM | GI50 [13]: 16 ± 2.4 µM | GI50 [14]: 23 ± 0.7 µM | GI50 [15]: 20 ± 2.7 µM | GI50 [16]: 19 ± 2.1 µM | CC50 [17]: 14.4 ± 2.8 µM | IGABA Potentiation of 10 µM (%) [18]: 4.5 ± 5.8% | IGABA Potentiation of 100 µM (%) [18]: −30.3 ± 9.5%

CCN(CC)CCCC(C)Nc1ccnc2cc(Cl)ccc12 (stereo not shown) [Chloroquine, reference compound]
EC50 ([23]; 3D7, 72 h): 0.023 µM | EC50 ([24]; K1, 72 h): 0.69 µM | EC50 [19]: > 25 µM | EC50 ([20]; Homo sapiens, HEK293, read-out: HEK293 EC50): > 25 µM | EC50 ([21]; Homo sapiens, HepG2, read-out: HepG2 EC50): > 25 µM | EC50 [22]: > 25 µM

CCCCCCCCCCCCCCCCOP(=O)([O-])OCC[N+](C)(C)C [Miltefosine, reference compound]
IC50 [27]: 58.1 ± 4.4 µM | IC50 [28]: 16.5 ± 1.9 µM | CC50 [25]: 136 ± 1.4 µM | IC50 [29]: 3.4 ± 0.6 µM | IC50 [30]: 0.15 ± 0.02 µM | IC50 [31]: 47.7 ± 5 µM | IC50 [32]: 18.2 ± 0.6 µM
